We go through six compounds from paper PMC10533593 (Molecular Neurobiology, 2023).

The target in assay [1] is human α1A adrenoreceptor fused to Rluc (human) (UniProt P35348). The assay is described as follows: FRET or BRET; BRET saturation in intact HEK-293T cells: constant amount of cDNA of the Rluc-fused receptor, increasing amounts of cDNA of the YFP-fused receptor; coelenterazine H 5 μM; HBSS with 0.1% glucose; single-phase saturation fit.
A further assay addresses T1, D4.4R (Homo sapiens, UniProt P21917).
T1 construct: gene DRD4; non-fused full-length human D4.4R in pcDNA3.1, transiently expressed in HEK-293T without alpha1AR; Galphai1-Rluc, Ggamma2-YFP and Gbeta1 reporters co-transfected
T1 sequence (P21917 1-419): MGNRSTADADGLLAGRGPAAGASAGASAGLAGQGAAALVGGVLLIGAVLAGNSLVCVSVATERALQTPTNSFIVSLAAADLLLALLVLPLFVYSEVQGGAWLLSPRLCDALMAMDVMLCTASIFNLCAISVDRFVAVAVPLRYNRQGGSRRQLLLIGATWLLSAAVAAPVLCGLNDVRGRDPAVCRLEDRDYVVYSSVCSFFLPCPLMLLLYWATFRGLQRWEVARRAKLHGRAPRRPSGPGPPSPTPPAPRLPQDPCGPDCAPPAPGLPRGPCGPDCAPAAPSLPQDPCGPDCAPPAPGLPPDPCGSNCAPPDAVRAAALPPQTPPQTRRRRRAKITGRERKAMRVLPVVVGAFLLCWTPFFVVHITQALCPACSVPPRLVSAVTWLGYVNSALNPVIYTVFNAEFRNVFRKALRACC
The class given is cell-based. The conditions noted are these: antagonist 1 μM, added 10 min before dopamine; D4.4R alone.

In assay [2] the target is T2, α1AR (Homo sapiens, UniProt P35348).
T2 construct: gene ADRA1A; non-fused full-length human alpha1AR in pcDNA3.1, transiently expressed in HEK-293T without D4R; Galphaq-Rluc or Galphas-Rluc, Ggamma2-YFP and Gbeta1 reporters co-transfected
T2 sequence (P35348 1-466): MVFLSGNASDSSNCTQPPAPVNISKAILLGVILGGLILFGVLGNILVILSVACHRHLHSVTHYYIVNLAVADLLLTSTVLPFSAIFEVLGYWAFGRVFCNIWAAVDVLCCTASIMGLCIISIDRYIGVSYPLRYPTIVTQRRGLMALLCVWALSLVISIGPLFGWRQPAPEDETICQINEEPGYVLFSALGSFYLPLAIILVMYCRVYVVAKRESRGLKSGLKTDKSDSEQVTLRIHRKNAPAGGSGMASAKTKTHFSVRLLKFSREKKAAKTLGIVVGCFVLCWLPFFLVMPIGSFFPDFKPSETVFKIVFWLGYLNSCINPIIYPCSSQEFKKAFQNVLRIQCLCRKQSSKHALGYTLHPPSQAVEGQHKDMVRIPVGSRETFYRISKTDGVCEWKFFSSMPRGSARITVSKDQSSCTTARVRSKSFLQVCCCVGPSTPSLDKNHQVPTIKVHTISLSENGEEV
The assay is described as follows: BRET Gq and Gs activation in HEK-293T. The conditions noted are these: agonist; alpha1AR alone; 10 μM dopamine; intact cells. The class given is cell-based. Background: Bioluminescence resonance energy transfer reports proximity on the nanometre scale.

In assay [3] the target is T2, α1AR. The class given is cell-based. The conditions noted are these: antagonist 1 μM, added 10 min before A61603; alpha1AR alone.
For assay [4], the target named is T3, α1AR-D4.4R (D4.4R read-out) (Homo sapiens, UniProt P21917).
T3 construct: gene DRD4; D4.4R (non-fused) co-expressed with alpha1AR in HEK-293T; alpha1AR non-fused in Gi assay, alpha1AR-YFP in beta-arrestin-2 assay; with Alpha-1A adrenergic receptor
T3 sequence (P21917 1-419): T1 sequence (P21917 1-419)
T3 sequence (P35348 1-466 partner): T2 sequence (P35348 1-466)
Briefly: BRET beta-arrestin-2-Rluc recruitment to alpha1AR-YFP in HEK-293T. The class given is cell-based. From the text:
BRET beta-arrestin-2-Rluc recruitment to alpha1AR-YFP in HEK-293T on α1AR-D4.4R (D4.4R read-out)

The target of assay [5] is human dopamine D4 receptor, polymorphic variant D4.4R, fused to Rluc (human) (UniProt P21917). The assay is described as follows: FRET or BRET; BRET saturation in intact HEK-293T cells: constant amount of cDNA of the Rluc-fused receptor, increasing amounts of cDNA of the YFP-fused receptor; coelenterazine H 5 μM; HBSS with 0.1% glucose; single-phase saturation fit.

“human dopamine D4 receptor, polymorphic variant D4.7R, fused to YFP” registered a BRET50 in assay [1] of 25. As to `Clc1ccc(N2CCN(Cc3c[nH]c4ncccc34)CC2)cc1` [L745870], on D4.4R, the “BRET Gi1 activation in HEK-293T, antagonism of dopamine” value is recorded as “the selective D4R antagonist L745870, but not the α1AR antagonist prazosin, antagonized the effect of dopamine”. For the compound `NCCc1ccc(O)c(O)c1` [dopamine], at α1AR [2], the “% of norepinephrine effect at 10 μM” value is below 50%. In the case of `COc1cc2nc(N3CCN(C(=O)c4ccco4)CC3)nc(N)c2cc1OC` [prazosin], the “BRET Gq and Gs activation in HEK-293T, antagonism of A61603” value on α1AR [3] is given as “the effect of A61603 was counteracted by prazosin”. In the case of `Cc1cccc(NC(=O)CN2CCC(c3ccccn3)CC2)c1` [A412997], in assay [4], the EC50 was determined as 30 ± 19 nM.

“human α1A adrenoreceptor fused to YFP (from UniProt P35348 1-466)” registered a BRET50 in assay [5] of 33.

The EC50 is the midpoint of the concentration-response curve.
